Test results: patent US20220281860A1, “COMPOUNDS AND METHODS OF TREATING RNA-MEDIATED DISEASES” (Arrakis Therapeutics, Inc., priority 2016, published 2022)

Tests used:
RNA3WJ_1.1.1_5IB_3FAM = assay: Thermal shift binding assay; conditions: 1 μM RNA, 8 μM compound
Excerpt: (§1) Purpose: Test binding of compounds for RNA three way junction (for example, a construct of 38 nt). Thermal shift assay based on established fluorescence quenching assay utilizing FAM as fluorescence tag and Iowa Black as quencher. Tags were attached at the 3′ and 5′ end, respectively. Stable formation of 3WJ upon compound binding would lead to quenching of the FAM fluorescence due to close proximity of the Iowa Black tag. Thermal unfolding leads to increase of fluorescence emission. Assay readout: FAM (465-510 nm) Thermal Shift.
(§2) Assay sample buffer used: 10 mM CacoK pH 7.2, 30 mM NaCl. Buffer preparation in Dnase/Rnase Free distilled water (Gibco Life Technologies).
(§3) Tool compounds provided as dry powder are prepared as 50 mM stock solution in 100% d6-DMSO. Stock solutions of 50 mM concentration in d6-DMSO are stored at RT.
(§4) Sample plate: Roche, Light Cycler480 Multiwell Plate96, white, REF 04729692001. (Dilution plate: Greiner REF 781101, PS-Microplate, 384 well, clear). Thermal Shift device: Roche, Light Cycler480.
(§5) Daily fresh (10 ml): 1 ml 100 mM CacoK pH 7.2 and 0.3 ml 1 M NaCl filled up to 10 ml with Dnase/Rnase Free distilled water.
(§6) Dilute the RNA 1:10 (final 10 μM) in Assay Buffer.
(§7) Heat up the diluted RNA up to 90° C. for 5 min (sealed Eppendorf Tube).
(§8) Cool down the RNA probe slowly to RT.
(§9) Dilute the compounds to 800 μM in DMSO (Assay: 8 μM).
(§10) 78.4 μL Assay Buffer are pipetted into Greiner REF 781101, PS-Microplate, 384 (each well needed).
(§11) Add 0.8 μL of the RNA-Solution ([…]).
(§12) Add 0.8 μL Compound-Solution ([…]).
(§13) Final concentrations in the sample: 1 μM RNA, 8 μM compound, 1% DMSO
(§14) Pipet 20 μL Sample Solution into Roche, Light Cycler480 Multiwell Plate96, white, REF 04729692001.
(§15) When sample transfer is finished, seal the plate with a clear topseal (part of REF 04729692001).
(§16) Centrifuge the plate with a table-top device to spin down the samples.
(§17) Measure the 96 plate with the LightCycler480 (Channel: 480/510 nm; Temperature: 41-91° C.).
(§18) Analyse measurement-data with the MeltingCurveGenotyping Mode.
(§19) Settings: Acquisition mode: continuous; Ramp rate: 0.1 C.°/sec; Acquisition: 6/C.° Melt Curve Genotyping for All Samples
(§20) Melting curves analysis show melting temperature (Tm) of ˜51° C. Range of RNA concentrations was tested and assay window was determined (conc. range of 0.5-1 μM yields best results). The choice of buffer also affected the Tm. RNA constructs were tested under different buffer conditions (especially in presence of salt) in the thermal shift assay. […] CacoK with 30 mM salt at 1 μM RNA conc. was used to assess compound effects on 3WJ stability. […] These conditions were used for screening test compounds.

RNA3WJ_1.1.0_5IB_3FAM = assay: Thermal shift binding assay; conditions: 1 μM RNA, 8 μM compound
Excerpt: as §1, §2, §3, §4, §5, §6, §7, §8, §9, §10, §11, §12, §13, §14, §15, §16, §17, §18, §19, §20

[1] = tested on: RNA3WJ_0.0.0_5IB_3FAM (3WJ_0.0.0_5IB_3FAM) RNA three way junction; assay: Thermal shift binding assay; conditions: RNA3WJ_0.0.0_5IB_3FAM; 1 μM RNA, 8 μM compound, 1% DMSO; 10 mM CacoK pH 7.2, 30 mM NaCl
Excerpt: as §1, §2, §3, §4, §5, §6, §7, §8, §9, §10, §11, §12, §13, §14, §15, §16, §17, §18, §19, §20

RNA3WJ_2.0.0_5IB_3FAM = assay: Thermal shift binding assay; conditions: 1 μM RNA, 8 μM compound
Excerpt: as §1, §2, §3, §4, §5, §6, §7, §8, §9, §10, §11, §12, §13, §14, §15, §16, §17, §18, §19, §20

RNA3WJ_2.1.0_5IB_3FAM = assay: Thermal shift binding assay; conditions: 1 μM RNA, 8 μM compound
Excerpt: as §1, §2, §3, §4, §5, §6, §7, §8, §9, §10, §11, §12, §13, §14, §15, §16, §17, §18, §19, §20

[2] = tested on: RNA3WJ_1.0.0_5IB_3FAM (cis 3WJ with one unpaired nucleotide); assay: Fluorescence quenching binding assay; conditions: cis 3WJ RNA3WJ_1.0.0_5IB_3FAM; two concentration points; FIG. 109
Experimental: (§21) This assay will be used to test binding of compounds for RNA three way junction (such as a 38 nt construct). This is a fluorescence quenching assay utilizing FAM as fluorescence tag and Iowa Black as quencher. Tags are attached at the 3′ and 5′ end, respectively. Stable formation of MW upon compound binding would lead to quenching of the FAM fluorescence due to close proximity of the Iowa Black tag. Assay readout: FAM (485-520 nm) Fluorescence Intensity.
as §2, §3
(§22) Sample plate: Greiner cat #784076, black, 384 (Dilution plate: Greiner REF 781101, PS-Microplate, 384 well, clear). Fluorescence Intensity device: Envision 1040285
(§23) Daily fresh (10 ml): 1 ml 100 mM CacoK pH 7.2 and 0.3 ml 1 M NaCl filled up to 10 ml with Dnase/Rnase Free distilled water […]
(§24) Calibration of the expected fluorescence signal at various RNA concentrations in either CacoK or NaPO4 buffers was performed first. Experiments in buffers containing salt show distinct fluorescence quenching behavior. […]
(§25) The fluorescence quenching experiment was repeated for compounds Ark0000013 and Ark0000014 to measure binding with: […]

[3] = tested on: Split3WJ.2 up_5IB+Split3WJ.2_down_3FAM (trans 3WJ as 1:1 mix); assay: Fluorescence quenching binding assay; conditions: trans 3WJ Split3WJ.2; two concentration points; FIG. 109
Experimental: as §21, §2, §3, §22, §23, §24, §25

[4] = tested on: Split3WJ.1_up_5IB+Split3WJ.1_down_3FAM (trans 3WJ as 1:1 mix); assay: Fluorescence quenching binding assay; conditions: trans 3WJ Split3WJ.1; two concentration points; FIG. 109
Experimental: as §21, §2, §3, §22, §23, §24, §25

RNA3WJ_3.0.0_5IB_3FAM = assay: Thermal shift binding assay; conditions: 1 μM RNA, 8 μM compound
Excerpt: as §1, §2, §3, §4, §5, §6, §7, §8, §9, §10, §11
Add 0.8 μL Compound-Solution ([…]). […]
as §14, §15, §16, §17, §18, §19, §20

Melting temp [° C.] + cmpd (RNA3WJ_1.1.1_5IB_3FAM) | Temp. Shift [° C.] (RNA3WJ_1.1.1_5IB_3FAM) | Melting temp [° C.] + cmpd (RNA3WJ_1.1.0_5IB_3FAM) | Temp. Shift [° C.] (RNA3WJ_1.1.0_5IB_3FAM) | Melting temp [° C.] + cmpd [1] | Temp. Shift [° C.] [1] | Melting temp [° C.] + cmpd (RNA3WJ_2.0.0_5IB_3FAM) | Temp. Shift [° C.] (RNA3WJ_2.0.0_5IB_3FAM) | Melting temp [° C.] + cmpd (RNA3WJ_2.1.0_5IB_3FAM) | Temp. Shift [° C.] (RNA3WJ_2.1.0_5IB_3FAM) | Melting temp [° C.] + cmpd (RNA3WJ_3.0.0_5IB_3FAM) | Temp. Shift [° C.] (RNA3WJ_3.0.0_5IB_3FAM) | SMILES | Effect in fluorescence quenching assay [2] | Effect in fluorescence quenching assay [3] | Effect in fluorescence quenching assay [4]
82.9 °C | 20.7 °C | 85.5 °C | 22.2 °C | 84.1 °C | 24.2 °C | 84.3 °C | 22.1 °C | 45.7 °C | 3.8 °C | 83.7 °C | 21.7 °C | CN(CCCN)CCCNC(=O)c1ccc2c(c1)C1c3cc(C(=O)NCCCN(C)CCCN)ccc3C2c2ccc(C(=O)NCCCN(C)CCCN)cc21 [Ark0000013, N^2,N^7,N^15-tris(3-((3-aminopropyl)(methyl)amino)propyl)-9,10-dihydro-9,10-[1,2]benzenoanthracene-2,7,15-tricarboxamide] | significant concentration dependent effect | significant concentration dependent effect | significant concentration dependent effect
64.3 °C | 2.1 °C | 65.1 °C | 1.8 °C | 61.5 °C | 1.6 °C | 64.4 °C | 2.2 °C | 42.0 °C | 0.1 °C | 63.9 °C | 1.9 °C | NCCCCCCCNC(=O)c1ccc2c(c1)C1c3cc(C(=O)NCCCCCCCN)ccc3C2c2ccc(C(=O)NCCCCCCCN)cc21 [Ark0000014, N^2,N^7,N^15-tris(7-aminoheptyl)-9,10-dihydro-9,10-[1,2]benzenoanthracene-2,7,15-tricarboxamide] | smaller effect | smaller effect on the RNA constructs (Split3WJ_2 shows larger effect) | smaller effect
